Measured values from patent US12358894B2 (priority 2019, dated 2025).

Test system: pathogens of rice blast
Assay type: cell-based
Conditions: test solution 2000 ppm, 1,000 μl on oatmeal culture medium, 4-mm rice blast disc, 25° C., 6 days; calculated from elongation length of hyphae with vs without treatment

SMILES: COc1nc(-n2cccn2)nc(F)c1C(F)(F)F [Example 1, 6-fluoro-4-methoxy-2-(1-pyrazolyl)-5-(trifluoromethyl)pyrimidine]
- Preventive value: 100
